We go through six compounds from PMC7284125, “Identification of annotated bioactive molecules that impair motility of the blood fluke Schistosoma mansoni” (International Journal for Parasitology: Drugs and Drug …, 2020).

The structures appear in SMILES notation. Some results are limits rather than exact numbers.

The first test relates to S. mansoni schistosomulae. Put plainly: Motility assay on schistosomulae (pixel displacement, relative to DMSO control). As to conditions: Schistosoma mansoni, 24 h, read-out: Fractional motility. The format is cell-based, Schistosoma mansoni. The method, then: Puerto Rican strain Biomphalaria glabrata snails infected with S. mansoni were kindly provided by Dr. Fred Lewis (Biomedical Research Institute and BEI Resources, MD, USA). Schistosomulae were obtained by exposing six to eight weeks-old snails to continuous light for 2 h at 32 °C. The resulting suspension of cercaria was then mechanically transformed as described ([Lewis, 2001]) and cultured in Opti-MEM/antibiotics (Thermo Fisher Scientific, Waltham, MA) containing 100 μg/mL streptomycin and 100 units/ml penicillin supplemented with 5% fetal bovine serum (FBS; Thermo Fisher). Parasite cultures were incubated at 37 °C with 5% CO2 for at least 10 days with no apparent loss of viability. At this point, animals with internal dark granulations and with no observable body contraction/relaxation cycles were considered dead.
(§1) Schistosomulae (200/well) and adult parasites (unpaired worms) were maintained in 300 μL OPTI-MEM with 5% dialyzed FBS (without antibiotics) and exposed to compounds at 1 and 10 μM for 24 h. A kinetic assay consisting of 1, 3, 6 and 12 h incubation times was performed on selected hits by motility monitoring using a stereo microscope (SMZ1270, Nikon) for adults and an inverted microscope for schistosomulae (eclipse TE2000-U, Nikon) connected to a monochrome camera (DS-Qi2, Nikon) for image acquisition. Images were recorded at a rate of 10 frames/s for a period of 1 min and videos were analyzed using ImageJ software (version 1.41, NIH, USA). Parasite movement quantification and data analysis protocols were applied using the pixel displacement method ([Patocka et al., 2014]; [Rashid et al., 2015]) and compared to control parasites treated with DMSO. Parasites were then washed several times in Opti-MEM, 5% FBS and incubated up to an additional three days (schistosomulae) or five days (adult worms) at 37 °C, 5% CO2 and motility was recorded as described above.
As to `O=C(O[C@H]1CN2CCC1CC2)N1CCc2ccccc2[C@@H]1c1ccccc1` [Solifenacin], the activity at 1 µM is -30%.

The test is the same for the next values; noted with them: Schistosoma mansoni, 120 h, read-out: Fractional motility.
Consider `O=C(O[C@H]1CN2CCC1CC2)N1CCc2ccccc2[C@@H]1c1ccccc1` [Solifenacin], for which the activity at 1 µM was -59%.

The same test, now with this note: Schistosoma mansoni, 120 h; Selleckchem customized library secondary screen, 24h, D5, 1 µM; read-out: Fractional motility.
`CN1CCC(CNc2ccc3ncc(-c4cccc(OC(F)(F)F)c4)n3n2)CC1` [SGI-1776]: the activity at 1 µM was found to be 35%.

The test is the same for the next values; noted with them: Schistosoma mansoni, 120 h; schistosomulae, secondary screen, 24h exposure, read at D5, 1 µM; read-out: Fractional motility.
Consider `Cc1cccc(C(C)c2cnc[nH]2)c1C` (stereo not shown) [Medetomidine], for which the activity at 1 µM is 10%.
Still for that read-out and setting: the value for `CCCN1C[C@H](CSC)C[C@@H]2c3cccc4[nH]cc(c34)C[C@H]21` [Pergolide] was -25%; that for `C=CC(=O)N1CCC[C@@H](n2nc(-c3ccc(Oc4ccccc4)cc3)c3c(N)ncnc32)C1` [Ibrutinib] was 244%; that for `Cc1cc(Nc2ncc(Cl)c(Nc3ccccc3S(=O)(=O)C(C)C)n2)c(OC(C)C)cc1C1CCNCC1` [LDK378] was 120%.

Still in this test, the particulars now being: Schistosoma mansoni; schistosomulae, secondary screen, 24h exposure, read at D1, 1 µM; read-out: Fractional motility.
Turning to `Cc1cccc(C(C)c2cnc[nH]2)c1C` (stereo not shown) [Medetomidine], the activity at 1 µM is -39%.
As for `CCCN1C[C@H](CSC)C[C@@H]2c3cccc4[nH]cc(c34)C[C@H]21` [Pergolide], the activity at 1 µM came to 139%.
Turning to `C=CC(=O)N1CCC[C@@H](n2nc(-c3ccc(Oc4ccccc4)cc3)c3c(N)ncnc32)C1` [Ibrutinib], the activity at 1 µM is -18%.
Turning to `Cc1cc(Nc2ncc(Cl)c(Nc3ccccc3S(=O)(=O)C(C)C)n2)c(OC(C)C)cc1C1CCNCC1` [LDK378], the activity at 1 µM turned out to be 7%.

The test is the same for the next values; noted with them: Selleckchem customized library secondary screen, 24h, D1, 10 µM.
Consider `CN1CCC(CNc2ccc3ncc(-c4cccc(OC(F)(F)F)c4)n3n2)CC1` [SGI-1776], for which the Fractional motility came out at 121.95.

Still in this test, the particulars now being: Selleckchem customized library secondary screen, 24h, D5, 10 µM.
For the compound `CN1CCC(CNc2ccc3ncc(-c4cccc(OC(F)(F)F)c4)n3n2)CC1` [SGI-1776], the Fractional motility is listed as 114.81.

Still in this test, the particulars now being: schistosomulae, secondary screen, 24h exposure, read at D1, 10 µM.
Turning to `Cc1cccc(C(C)c2cnc[nH]2)c1C` (stereo not shown) [Medetomidine], the Fractional motility is reported as -0.24.
The same measure, in the same setting: the same measure for `CCCN1C[C@H](CSC)C[C@@H]2c3cccc4[nH]cc(c34)C[C@H]21` [Pergolide]: 18.64; for `C=CC(=O)N1CCC[C@@H](n2nc(-c3ccc(Oc4ccccc4)cc3)c3c(N)ncnc32)C1` [Ibrutinib]: 0.000588; for `Cc1cc(Nc2ncc(Cl)c(Nc3ccccc3S(=O)(=O)C(C)C)n2)c(OC(C)C)cc1C1CCNCC1` [LDK378]: -0.83.
Regarding `O=C(O[C@H]1CN2CCC1CC2)N1CCc2ccccc2[C@@H]1c1ccccc1` [Solifenacin], the Fractional motility is recorded as 1.46.

The same test, now with this note: schistosomulae, secondary screen, 24h exposure, read at D5, 10 µM.
In turn, `Cc1cccc(C(C)c2cnc[nH]2)c1C` (stereo not shown) [Medetomidine] came in with a Fractional motility of 0.20.
`CCCN1C[C@H](CSC)C[C@@H]2c3cccc4[nH]cc(c34)C[C@H]21` [Pergolide] came in with a Fractional motility of -0.34.
Consider `C=CC(=O)N1CCC[C@@H](n2nc(-c3ccc(Oc4ccccc4)cc3)c3c(N)ncnc32)C1` [Ibrutinib], for which the Fractional motility is -0.29.
Still for that read-out and setting: the value for `Cc1cc(Nc2ncc(Cl)c(Nc3ccccc3S(=O)(=O)C(C)C)n2)c(OC(C)C)cc1C1CCNCC1` [LDK378] was -0.96; that for `O=C(O[C@H]1CN2CCC1CC2)N1CCc2ccccc2[C@@H]1c1ccccc1` [Solifenacin] was 0.44.

Staying with this test, now noted: schistosomulae, throughout the course of the experiment.
Consider `CN1CCC(CNc2ccc3ncc(-c4cccc(OC(F)(F)F)c4)n3n2)CC1` [SGI-1776], for which the “stimulated motility relative to control” value was above 100 fold.

The next test concerns S. mansoni schistosomulae. Briefly: Phenotypic primary screen assay on schistosomulae (phenotype; viability by methylene blue dye exclusion). As to conditions: Schistosoma mansoni; three-day-old schistosomulae, 10 μM, 24 h; calculated 5 days post compound exposure; read-out: Viability (%). The test is classed as cell-based.
On to `Cc1cccc(C(C)c2cnc[nH]2)c1C` (stereo not shown) [Medetomidine], for which the viability at 10 µM is 100%.
Regarding `CCCN1C[C@H](CSC)C[C@@H]2c3cccc4[nH]cc(c34)C[C@H]21` [Pergolide], the viability at 10 µM was 99%.
`C=CC(=O)N1CCC[C@@H](n2nc(-c3ccc(Oc4ccccc4)cc3)c3c(N)ncnc32)C1` [Ibrutinib]: the viability at 10 µM is 84.5%.
Consider `Cc1cc(Nc2ncc(Cl)c(Nc3ccccc3S(=O)(=O)C(C)C)n2)c(OC(C)C)cc1C1CCNCC1` [LDK378], for which the viability at 10 µM is 0%.
`O=C(O[C@H]1CN2CCC1CC2)N1CCc2ccccc2[C@@H]1c1ccccc1` [Solifenacin]: the viability at 10 µM was 96.5%.
Still for that read-out and setting: the same measure for `CN1CCC(CNc2ccc3ncc(-c4cccc(OC(F)(F)F)c4)n3n2)CC1` [SGI-1776]: 92.5%.

A further test concerns S. mansoni schistosomulae. The description is as above. The format is cell-based, Schistosoma mansoni. The settings on record: three-day-old schistosomulae, 10 μM, 24 h; estimated 5 days post compound exposure. The protocol: Puerto Rican strain Biomphalaria glabrata snails infected with S. mansoni were kindly provided by Dr. Fred Lewis (Biomedical Research Institute and BEI Resources, MD, USA). Schistosomulae were obtained by exposing six to eight weeks-old snails to continuous light for 2 h at 32 °C. […] At this point, animals with internal dark granulations and with no observable body contraction/relaxation cycles were considered dead.
Schistosomulae were monitored under a stereo microscope (SMZ1270, Nikon). Phenotypic observations were made by analyzing schistosomulae, 24 h after drug addition to assess any immediate effect and five days post-compound exposure to observe long-term impacts on both the movement and overall body shape in comparison to control animals exposed to DMSO only.
On to `Cc1cccc(C(C)c2cnc[nH]2)c1C` (stereo not shown) [Medetomidine], for which the Phenotype result is recorded as “elongated”.
For `CCCN1C[C@H](CSC)C[C@@H]2c3cccc4[nH]cc(c34)C[C@H]21` [Pergolide], the Phenotype entry was “big, round”.
Turning to `C=CC(=O)N1CCC[C@@H](n2nc(-c3ccc(Oc4ccccc4)cc3)c3c(N)ncnc32)C1` [Ibrutinib], the Phenotype result was “dark, granulated”.
Still for that read-out and setting: the same measure for `Cc1cc(Nc2ncc(Cl)c(Nc3ccccc3S(=O)(=O)C(C)C)n2)c(OC(C)C)cc1C1CCNCC1` [LDK378]: “dark, granulated”.
`O=C(O[C@H]1CN2CCC1CC2)N1CCc2ccccc2[C@@H]1c1ccccc1` [Solifenacin]: the Phenotype entry was “elongated, granulated, blebbing”.
`CN1CCC(CNc2ccc3ncc(-c4cccc(OC(F)(F)F)c4)n3n2)CC1` [SGI-1776]: the Phenotype result is “dark”.

The next test concerns S. mansoni adult worms. Briefly: Motility assay on adult parasites (pixel displacement, relative to DMSO control). The settings on record: adults, 10 μM, long-term after washout. The format is cell-based, Schistosoma mansoni. The protocol:
Adult parasites were collected from 40 day-old female CD1 mice (Charles River) previously inoculated by the tail infection method ([Lewis, 2001]). Six weeks post-infection, mice were sacrificed, and adult worms extracted after perfusion of in the hepatic portal vein and mesenteric venules ([Lewis, 2001]). Animal procedures were reviewed and approved by the Facility Animal Care Committee of McGill University (Protocol No. 3346) and were conducted in accordance with the guidelines of the Canadian Council on Animal Care.
as §1
`Cc1cc(Nc2ncc(Cl)c(Nc3ccccc3S(=O)(=O)C(C)C)n2)c(OC(C)C)cc1C1CCNCC1` [LDK378]: the “motility phenotype in words” value was “Significant hypomotility”.

The same test, now with this note: secondary screen, 10 μM, D1, Female adult worms.
Consider `Cc1cccc(C(C)c2cnc[nH]2)c1C` (stereo not shown) [Medetomidine], for which the Fractional motility is given as 1.05.
`CCCN1C[C@H](CSC)C[C@@H]2c3cccc4[nH]cc(c34)C[C@H]21` [Pergolide] gave a Fractional motility of 0.25.
`C=CC(=O)N1CCC[C@@H](n2nc(-c3ccc(Oc4ccccc4)cc3)c3c(N)ncnc32)C1` [Ibrutinib]: the Fractional motility amounted to 0.33.
Take `Cc1cc(Nc2ncc(Cl)c(Nc3ccccc3S(=O)(=O)C(C)C)n2)c(OC(C)C)cc1C1CCNCC1` [LDK378]: the Fractional motility is reported as -0.38.
Compound `O=C(O[C@H]1CN2CCC1CC2)N1CCc2ccccc2[C@@H]1c1ccccc1` [Solifenacin] showed a Fractional motility of 1.59.
As to `CN1CCC(CNc2ccc3ncc(-c4cccc(OC(F)(F)F)c4)n3n2)CC1` [SGI-1776], the Fractional motility was 3.98.

The same test, now with this note: secondary screen, 10 μM, D1, Male adult worms.
Compound `Cc1cccc(C(C)c2cnc[nH]2)c1C` (stereo not shown) [Medetomidine] gave a Fractional motility of 2.75.
The compound `CCCN1C[C@H](CSC)C[C@@H]2c3cccc4[nH]cc(c34)C[C@H]21` [Pergolide] gave a Fractional motility of 2.14.
`C=CC(=O)N1CCC[C@@H](n2nc(-c3ccc(Oc4ccccc4)cc3)c3c(N)ncnc32)C1` [Ibrutinib] displayed a Fractional motility of 2.36.
Consider `Cc1cc(Nc2ncc(Cl)c(Nc3ccccc3S(=O)(=O)C(C)C)n2)c(OC(C)C)cc1C1CCNCC1` [LDK378], for which the Fractional motility is reported as -0.0381.
For the compound `O=C(O[C@H]1CN2CCC1CC2)N1CCc2ccccc2[C@@H]1c1ccccc1` [Solifenacin], the Fractional motility is recorded as 2.65.
The compound `CN1CCC(CNc2ccc3ncc(-c4cccc(OC(F)(F)F)c4)n3n2)CC1` [SGI-1776] gave a Fractional motility of 9.87.

The test is the same for the next values; noted with them: secondary screen, 10 μM, D5, Female adult worms.
Take `Cc1cccc(C(C)c2cnc[nH]2)c1C` (stereo not shown) [Medetomidine]: the Fractional motility was -0.85.
Compound `CCCN1C[C@H](CSC)C[C@@H]2c3cccc4[nH]cc(c34)C[C@H]21` [Pergolide] showed a Fractional motility of -0.82.
Compound `C=CC(=O)N1CCC[C@@H](n2nc(-c3ccc(Oc4ccccc4)cc3)c3c(N)ncnc32)C1` [Ibrutinib] came in with a Fractional motility of 0.36.
Still for that read-out and setting: the same measure for `Cc1cc(Nc2ncc(Cl)c(Nc3ccccc3S(=O)(=O)C(C)C)n2)c(OC(C)C)cc1C1CCNCC1` [LDK378]: -0.63; for `O=C(O[C@H]1CN2CCC1CC2)N1CCc2ccccc2[C@@H]1c1ccccc1` [Solifenacin]: -0.55; for `CN1CCC(CNc2ccc3ncc(-c4cccc(OC(F)(F)F)c4)n3n2)CC1` [SGI-1776]: 0.50.

Staying with this test, now noted: secondary screen, 10 μM, D5, Male adult worms.
`Cc1cccc(C(C)c2cnc[nH]2)c1C` (stereo not shown) [Medetomidine] had a Fractional motility of 0.31.
`CCCN1C[C@H](CSC)C[C@@H]2c3cccc4[nH]cc(c34)C[C@H]21` [Pergolide] came in with a Fractional motility of -0.30.
Same read-out and setting: the same measure for `C=CC(=O)N1CCC[C@@H](n2nc(-c3ccc(Oc4ccccc4)cc3)c3c(N)ncnc32)C1` [Ibrutinib]: 0.94.
As for `Cc1cc(Nc2ncc(Cl)c(Nc3ccccc3S(=O)(=O)C(C)C)n2)c(OC(C)C)cc1C1CCNCC1` [LDK378], the Fractional motility is reported as -0.31.
Regarding `O=C(O[C@H]1CN2CCC1CC2)N1CCc2ccccc2[C@@H]1c1ccccc1` [Solifenacin], the Fractional motility amounted to 0.28.
For `CN1CCC(CNc2ccc3ncc(-c4cccc(OC(F)(F)F)c4)n3n2)CC1` [SGI-1776], the Fractional motility is 0.36.

For orientation: viability means a read-out of living cells in per cent, often relative to untreated cells.
